Among the test systems are SK-MEL-5; SF-268; MDA-MB-231; 786-0; UACC-62; OVCAR-5; T47D; PC-3; CAKI-1; DU-145; BT-549; MDA-N; HL-60; SK-MEL-2; A549; OVCAR-4; NCI/ADR-RES; LOX IMVI; IGROV-1.
Holding throughout (assay): NCI anticancer screen, dose series, 48 h

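1) Cells in 96-well plates. 2) Compound, 48 h, 5 concentrations. 3) Linear interpolation between surrounding doses. 4) Unreached endpoint = highest concentration. GI50 marks 50% less growth.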 Active and inactive are the calls of the source. No stated cut-off is given here; in the data, active = GI50 up to about 1.1 µM and inactive = higher. Residues, ends and D or L forms follow the SMILES beside them. *: point of attachment. Boc = CC(C)(C)OC(=O)*; OBn = c1ccc(CO*)cc1

Take `Cc1ccc2nc(-c3ccc(N)c(Br)c3)sc2c1`: the GI50 with SK-MEL-5 was 79.1 µM (inactive); with SF-268 it was 10.6 µM (inactive); in the assay with MDA-MB-231, 25.3 µM (inactive); in the assay on 786-0, 29.1 µM (inactive); in the assay with UACC-62, 23.8 µM (inactive); with OVCAR-5 it was 47.3 µM (inactive). The GI50 with T47D is 0.655 µM (active); in the assay with PC-3, 22.2 µM (inactive); with CAKI-1, 34.8 µM (inactive); with DU-145, 31.5 µM (inactive); in the assay on BT-549, 14.9 µM (inactive); in the assay on MDA-N, > 100 µM (inactive). For the same molecule, the GI50 was 17.4 µM (inactive) in the assay with HL-60; 27.9 µM (inactive) in the assay with SK-MEL-2; 29 µM (inactive) in the assay on A549; 33.5 µM (inactive) in the assay with OVCAR-4; 52.1 µM (inactive) in the assay with NCI/ADR-RES; 13.2 µM (inactive) with LOX IMVI.
With `C=Cc1cc(OC)c2c(c1)c(=O)oc1c2cc(OC)c2c(O)ccc(C3OC(C)C(O)C(C)(O)C3O)c21` (stereo not drawn), the GI50 with SF-268 is 0.0237 µM (active); in the assay with MDA-MB-231, 0.00345 µM (active); in the assay on 786-0, 0.000348 µM (active); in the assay with UACC-62, 0.0317 µM (active); in the assay on OVCAR-5 it was 0.0397 µM (active); in the assay on T47D it was 0.00147 µM (active). The GI50 is 0.000638 µM (active) with PC-3; 0.0462 µM (active) in the assay with CAKI-1; 0.000296 µM (active) in the assay with DU-145; 0.00183 µM (active) in the assay with BT-549; 0.0403 µM (active) in the assay on IGROV-1; 0.00171 µM (active) with MDA-N. Besides, the GI50 in the assay with HL-60 is 0.0225 µM (active); in the assay with SK-MEL-2, 0.0294 µM (active); with A549, 0.0328 µM (active); with OVCAR-4, 0.0271 µM (active); in the assay with NCI/ADR-RES it was 0.0344 µM (active); in the assay with LOX IMVI it was 0.0225 µM (active).
For `CC(=O)Nc1cccc(N2C(=O)/C(=C\c3cccc(Oc4ccccc4)c3)S(=O)(=O)C2c2ccccc2)c1` (stereo not drawn), the GI50 is 76.6 µM (inactive) with SK-MEL-5; > 100 µM (inactive) in the assay on MDA-MB-231; > 100 µM (inactive) in the assay on 786-0; 43.6 µM (inactive) with UACC-62; > 100 µM (inactive) in the assay on OVCAR-5; 25 µM (inactive) in the assay on T47D. Further, the GI50 is 64.3 µM (inactive) in the assay with PC-3; 53.5 µM (inactive) in the assay on CAKI-1; > 100 µM (inactive) in the assay with DU-145; 69.8 µM (inactive) with BT-549; 50.7 µM (inactive) with IGROV-1; 33.1 µM (inactive) in the assay on MDA-N. The GI50 is 18.9 µM (inactive) with HL-60; 55.6 µM (inactive) in the assay on SK-MEL-2; > 100 µM (inactive) in the assay on A549; 25.2 µM (inactive) in the assay with OVCAR-4; 55.5 µM (inactive) in the assay with NCI/ADR-RES; 27.7 µM (inactive) in the assay on LOX IMVI.
As for `CC(C)CC(NC(=O)OC(C)(C)C)C(=O)NC(CC(=O)OCc1ccccc1)C(=O)OCc1ccccc1` (stereo not drawn) (Boc-Leu-Asp(OBn)-OBn; configuration not given here), the GI50 with SK-MEL-5 was 24.7 µM (inactive); in the assay on SF-268 it was 41.8 µM (inactive); with MDA-MB-231, 39.4 µM (inactive); with 786-0 it was 19 µM (inactive); in the assay with UACC-62, 21.9 µM (inactive); in the assay on OVCAR-5 it was > 100 µM (inactive). The GI50 was > 100 µM (inactive) in the assay on T47D; 29.4 µM (inactive) with PC-3; > 100 µM (inactive) with CAKI-1; 37.9 µM (inactive) in the assay on DU-145; 81.5 µM (inactive) in the assay with BT-549; > 10 µM (inactive) in the assay on IGROV-1. The GI50 was 42.2 µM (inactive) in the assay with MDA-N; 26.1 µM (inactive) with HL-60; 63 µM (inactive) in the assay with SK-MEL-2; > 100 µM (inactive) with A549; > 100 µM (inactive) in the assay on NCI/ADR-RES; 22.8 µM (inactive) with LOX IMVI.
Consider `CCCCOC(=O)NC(c1ccccc1)C(O)C(=O)OC1C[C@@]2(O)C(OC(=O)c3ccccc3)C3[C@](C)(C(=O)[C@H](OC(C)=O)C(=C1C)C2(C)C)[C@@H](O)C[C@H]1OC[C@@]31OC(C)=O` (stereo partly drawn), for which the GI50 is 0.0102 µM (active) in the assay with SK-MEL-5; 0.0113 µM (active) in the assay with SF-268; 0.034 µM (active) in the assay on MDA-MB-231; 0.00875 µM (active) in the assay with 786-0; 0.0134 µM (active) with UACC-62; 0.015 µM (active) in the assay with OVCAR-5. For the same molecule, the GI50 with T47D is 0.175 µM (active); with PC-3, 0.0171 µM (active); in the assay on DU-145, 0.0125 µM (active); with BT-549, 0.0148 µM (active); with IGROV-1, 0.00405 µM (active); in the assay with MDA-N, 0.00176 µM (active). The GI50 in the assay with HL-60 was 0.00345 µM (active); with SK-MEL-2 it was 0.00773 µM (active); with A549 it was 0.00873 µM (active); in the assay with OVCAR-4 it was 2.92 µM (inactive); in the assay on NCI/ADR-RES, 2 µM (inactive); in the assay on LOX IMVI it was 0.00427 µM (active).
Turning to `Cn1ccc(C(=O)N2CCSC2=S)c(OCc2ccccc2)c1=O`, the GI50 in the assay on SK-MEL-5 was > 100 µM (inactive); with SF-268 it was > 100 µM (inactive); with MDA-MB-231, > 100 µM (inactive); in the assay on 786-0 it was > 100 µM (inactive); in the assay on UACC-62, > 100 µM (inactive); in the assay with T47D, 66.7 µM (inactive). The GI50 in the assay on PC-3 is > 100 µM (inactive); in the assay on CAKI-1 it was 72.3 µM (inactive); in the assay with DU-145, > 100 µM (inactive); with BT-549, > 100 µM (inactive); in the assay with MDA-N, > 100 µM (inactive); in the assay with HL-60, 54.8 µM (inactive). The GI50 in the assay on SK-MEL-2, in the assay on A549, in the assay on OVCAR-4, with NCI/ADR-RES and with LOX IMVI was > 100 µM (inactive) throughout.
`O=C(CCc1ccc(O)c(O)c1)NCCc1cc(O)cc(OCc2ccccc2)c1`: the GI50 was 13.5 µM (inactive) in the assay with SK-MEL-5; 31.4 µM (inactive) with SF-268; 27.2 µM (inactive) in the assay with MDA-MB-231; 45.7 µM (inactive) in the assay on 786-0; 31.3 µM (inactive) with UACC-62; 87.9 µM (inactive) in the assay on OVCAR-5. Moreover, the GI50 was 15.3 µM (inactive) in the assay on T47D; 31.9 µM (inactive) in the assay on PC-3; 12.6 µM (inactive) with CAKI-1; 43.3 µM (inactive) in the assay on DU-145; 10.6 µM (inactive) in the assay on BT-549; 39.1 µM (inactive) in the assay on IGROV-1. For the same molecule, the GI50 is 19.5 µM (inactive) in the assay on MDA-N; 10.9 µM (inactive) with HL-60; 43.1 µM (inactive) in the assay on SK-MEL-2; 52.6 µM (inactive) with A549; 43.5 µM (inactive) with NCI/ADR-RES; 26.3 µM (inactive) in the assay with LOX IMVI.
For the molecule `CC1=Nc2sc3c(c2C2=NCCN12)CCCC3`, the GI50 is 28.2 µM (inactive) in the assay with SK-MEL-5; 52.2 µM (inactive) with SF-268; 33.3 µM (inactive) in the assay on MDA-MB-231; 21.8 µM (inactive) with 786-0; 15.3 µM (inactive) in the assay with UACC-62; 30.7 µM (inactive) in the assay on OVCAR-5. Further, the GI50 was 32.7 µM (inactive) with T47D; 20 µM (inactive) with PC-3; 22.9 µM (inactive) in the assay with CAKI-1; 30.5 µM (inactive) with DU-145; 19.1 µM (inactive) in the assay with BT-549; 18.3 µM (inactive) in the assay on IGROV-1. Moreover, the GI50 was 22.3 µM (inactive) in the assay on MDA-N; 22.8 µM (inactive) in the assay with HL-60; 35.8 µM (inactive) in the assay on SK-MEL-2; 42.4 µM (inactive) in the assay on OVCAR-4; 14.8 µM (inactive) in the assay on NCI/ADR-RES; 17.6 µM (inactive) in the assay with LOX IMVI.
